Assay [1] has as its target Serine/threonine-protein kinase 33 (Homo sapiens) (UniProt Q9BYT3). The assay can be described thus: Inhibition of human recombinant STK33 at 15 nM related to control ULK1.
Assay [2] concerns the target Serine/threonine-protein kinase 32B (Homo sapiens) (UniProt Q9NY57). The assay can be described thus: Inhibition of human recombinant YANK2 at 40 nM in presence of ATP by radiometric assay relative to control.
Assay [3] concerns the target Cyclin-dependent kinase 18 (Homo sapiens) (UniProt Q07002). The assay can be described thus: Inhibition of human recombinant PCTAIRE3 at 40 nM in presence of ATP by radiometric assay relative to control.
The target in assay [4] is Ribosomal protein S6 kinase alpha-3 (Homo sapiens) (UniProt P51812). The assay can be described thus: Inhibition of human recombinant RSK2 at 40 nM in presence of ATP by radiometric assay relative to control.
Assay [5] addresses T1, Serine/threonine-protein kinase Sgk1 (Homo sapiens) (UniProt O00141).
T1 sequence (whole entry): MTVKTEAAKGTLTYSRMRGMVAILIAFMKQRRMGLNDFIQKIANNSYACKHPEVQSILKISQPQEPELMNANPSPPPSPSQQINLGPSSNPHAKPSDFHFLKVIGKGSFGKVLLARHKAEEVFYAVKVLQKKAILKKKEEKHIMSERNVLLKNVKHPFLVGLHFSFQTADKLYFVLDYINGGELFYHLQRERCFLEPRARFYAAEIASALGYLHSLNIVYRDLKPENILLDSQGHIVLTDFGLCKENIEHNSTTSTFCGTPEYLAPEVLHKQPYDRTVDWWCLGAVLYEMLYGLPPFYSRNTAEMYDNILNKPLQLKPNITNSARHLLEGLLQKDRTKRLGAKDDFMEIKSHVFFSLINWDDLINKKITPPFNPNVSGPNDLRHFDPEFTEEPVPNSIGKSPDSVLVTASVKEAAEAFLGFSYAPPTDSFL
The assay can be described thus: Inhibition of human recombinant SGK1 at 40 nM related to control ULK1.

Assay [6] has as its target Ribosomal protein S6 kinase alpha-2 (Homo sapiens) (UniProt Q15349). The assay can be described thus: Inhibition of human recombinant RSK3 at 40 nM in presence of ATP by radiometric assay relative to control.
The target in assay [7] is T2, SNF-related serine/threonine-protein kinase (Homo sapiens) (UniProt Q9NRH2).
T2 sequence (whole entry): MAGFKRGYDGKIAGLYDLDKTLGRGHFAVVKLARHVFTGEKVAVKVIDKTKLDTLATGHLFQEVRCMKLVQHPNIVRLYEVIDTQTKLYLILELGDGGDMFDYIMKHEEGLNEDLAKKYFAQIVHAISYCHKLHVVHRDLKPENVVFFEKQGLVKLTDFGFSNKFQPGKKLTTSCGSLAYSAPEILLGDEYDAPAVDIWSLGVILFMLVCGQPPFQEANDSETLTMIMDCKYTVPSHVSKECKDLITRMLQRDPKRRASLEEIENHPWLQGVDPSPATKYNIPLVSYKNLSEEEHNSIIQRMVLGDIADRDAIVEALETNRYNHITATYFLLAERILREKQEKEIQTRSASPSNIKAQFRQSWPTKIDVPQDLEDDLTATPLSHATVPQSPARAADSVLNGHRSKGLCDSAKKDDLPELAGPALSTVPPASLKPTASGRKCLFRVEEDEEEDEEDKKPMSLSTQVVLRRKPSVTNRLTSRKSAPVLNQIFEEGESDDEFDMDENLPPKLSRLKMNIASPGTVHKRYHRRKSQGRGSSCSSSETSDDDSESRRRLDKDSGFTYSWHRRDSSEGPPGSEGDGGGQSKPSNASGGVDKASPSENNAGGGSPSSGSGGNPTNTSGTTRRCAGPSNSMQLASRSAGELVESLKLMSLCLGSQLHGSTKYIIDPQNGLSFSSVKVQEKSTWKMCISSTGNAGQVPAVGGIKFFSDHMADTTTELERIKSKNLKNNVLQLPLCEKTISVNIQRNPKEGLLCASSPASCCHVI
The assay can be described thus: Inhibition of human recombinant SNRK at 500 nM in presence of ATP by radiometric assay relative to control.

Assay [8] has as its target Vascular endothelial growth factor receptor 1 (Homo sapiens) (UniProt P17948). The assay can be described thus: Inhibition of human recombinant FLT1 at 500 nM related to control ULK1.
Assay [9] has as its target T3, Tyrosine-protein kinase JAK3 (Homo sapiens) (UniProt P52333).
T3 sequence (whole entry): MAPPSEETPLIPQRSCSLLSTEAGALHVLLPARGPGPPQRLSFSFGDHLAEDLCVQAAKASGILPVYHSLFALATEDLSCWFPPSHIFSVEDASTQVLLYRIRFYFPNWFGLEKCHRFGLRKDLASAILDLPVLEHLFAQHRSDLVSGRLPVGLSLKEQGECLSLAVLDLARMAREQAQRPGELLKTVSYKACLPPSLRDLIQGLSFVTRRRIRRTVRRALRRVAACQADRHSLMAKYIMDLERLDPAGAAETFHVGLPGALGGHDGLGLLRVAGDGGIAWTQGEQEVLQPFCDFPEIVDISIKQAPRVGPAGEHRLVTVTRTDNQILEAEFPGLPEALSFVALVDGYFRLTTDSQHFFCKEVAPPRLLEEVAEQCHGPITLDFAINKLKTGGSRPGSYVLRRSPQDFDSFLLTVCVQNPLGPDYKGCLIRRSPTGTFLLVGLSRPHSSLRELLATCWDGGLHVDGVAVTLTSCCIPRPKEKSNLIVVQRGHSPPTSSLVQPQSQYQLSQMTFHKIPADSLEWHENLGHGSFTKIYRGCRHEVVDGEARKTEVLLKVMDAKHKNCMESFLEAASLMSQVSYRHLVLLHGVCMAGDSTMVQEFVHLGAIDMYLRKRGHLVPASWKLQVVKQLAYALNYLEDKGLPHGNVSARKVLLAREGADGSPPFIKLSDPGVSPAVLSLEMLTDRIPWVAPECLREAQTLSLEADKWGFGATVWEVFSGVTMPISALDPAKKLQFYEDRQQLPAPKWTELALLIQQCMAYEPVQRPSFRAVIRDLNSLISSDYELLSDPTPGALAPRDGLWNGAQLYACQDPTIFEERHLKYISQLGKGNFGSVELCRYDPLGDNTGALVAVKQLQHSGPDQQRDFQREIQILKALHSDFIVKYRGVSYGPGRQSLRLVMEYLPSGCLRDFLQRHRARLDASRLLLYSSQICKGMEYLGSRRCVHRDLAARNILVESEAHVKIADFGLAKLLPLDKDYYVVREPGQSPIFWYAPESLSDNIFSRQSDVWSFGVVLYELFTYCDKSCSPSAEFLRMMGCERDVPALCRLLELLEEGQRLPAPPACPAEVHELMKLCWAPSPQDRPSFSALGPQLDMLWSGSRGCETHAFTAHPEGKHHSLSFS
The assay can be described thus: Inhibition of human recombinant JAK3 at 500 nM in presence of ATP by radiometric assay relative to control.

Assay [10] deals with Glycogen synthase kinase-3 alpha (Homo sapiens) (UniProt P49840). The assay can be described thus: Inhibition of human recombinant GSK3A at 500 nM related to control ULK1.

Each structure is given as a SMILES string.

Ribosomal protein S6 kinase alpha-2 (Homo sapiens), sequence (Q15349 whole entry): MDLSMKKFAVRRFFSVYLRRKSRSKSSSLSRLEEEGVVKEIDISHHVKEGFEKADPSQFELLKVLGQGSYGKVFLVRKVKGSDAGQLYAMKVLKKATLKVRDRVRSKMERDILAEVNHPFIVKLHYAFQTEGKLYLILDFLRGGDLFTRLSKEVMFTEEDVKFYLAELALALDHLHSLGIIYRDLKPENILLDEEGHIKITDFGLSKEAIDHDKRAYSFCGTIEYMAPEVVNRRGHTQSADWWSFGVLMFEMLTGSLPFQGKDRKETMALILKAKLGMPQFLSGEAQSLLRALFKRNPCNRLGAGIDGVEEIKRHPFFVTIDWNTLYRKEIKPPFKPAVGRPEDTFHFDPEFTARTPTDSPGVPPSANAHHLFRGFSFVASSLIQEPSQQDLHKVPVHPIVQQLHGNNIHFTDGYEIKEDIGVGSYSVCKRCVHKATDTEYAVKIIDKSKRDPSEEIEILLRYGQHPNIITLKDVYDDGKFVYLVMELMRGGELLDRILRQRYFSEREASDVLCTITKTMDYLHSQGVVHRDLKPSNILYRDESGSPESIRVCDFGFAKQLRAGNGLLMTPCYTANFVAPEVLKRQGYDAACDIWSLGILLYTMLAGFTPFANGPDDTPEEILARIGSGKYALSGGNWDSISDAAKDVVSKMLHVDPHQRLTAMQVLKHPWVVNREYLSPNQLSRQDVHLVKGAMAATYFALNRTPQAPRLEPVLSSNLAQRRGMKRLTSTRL
Glycogen synthase kinase-3 alpha (Homo sapiens), sequence (P49840 2-483 limits assumed): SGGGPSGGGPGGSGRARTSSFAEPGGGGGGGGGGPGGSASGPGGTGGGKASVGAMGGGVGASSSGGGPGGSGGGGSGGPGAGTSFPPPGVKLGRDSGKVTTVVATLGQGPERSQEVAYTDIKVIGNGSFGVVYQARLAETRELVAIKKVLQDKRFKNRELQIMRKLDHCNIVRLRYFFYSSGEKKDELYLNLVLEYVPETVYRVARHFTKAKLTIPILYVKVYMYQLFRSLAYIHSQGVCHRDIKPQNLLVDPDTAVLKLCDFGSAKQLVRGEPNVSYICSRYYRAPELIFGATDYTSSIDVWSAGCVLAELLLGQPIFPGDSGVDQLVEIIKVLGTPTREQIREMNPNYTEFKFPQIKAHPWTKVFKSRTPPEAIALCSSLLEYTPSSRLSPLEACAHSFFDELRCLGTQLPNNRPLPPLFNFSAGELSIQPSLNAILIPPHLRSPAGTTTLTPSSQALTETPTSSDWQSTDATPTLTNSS
Serine/threonine-protein kinase 33 (Homo sapiens), sequence (Q9BYT3 whole entry, looked up): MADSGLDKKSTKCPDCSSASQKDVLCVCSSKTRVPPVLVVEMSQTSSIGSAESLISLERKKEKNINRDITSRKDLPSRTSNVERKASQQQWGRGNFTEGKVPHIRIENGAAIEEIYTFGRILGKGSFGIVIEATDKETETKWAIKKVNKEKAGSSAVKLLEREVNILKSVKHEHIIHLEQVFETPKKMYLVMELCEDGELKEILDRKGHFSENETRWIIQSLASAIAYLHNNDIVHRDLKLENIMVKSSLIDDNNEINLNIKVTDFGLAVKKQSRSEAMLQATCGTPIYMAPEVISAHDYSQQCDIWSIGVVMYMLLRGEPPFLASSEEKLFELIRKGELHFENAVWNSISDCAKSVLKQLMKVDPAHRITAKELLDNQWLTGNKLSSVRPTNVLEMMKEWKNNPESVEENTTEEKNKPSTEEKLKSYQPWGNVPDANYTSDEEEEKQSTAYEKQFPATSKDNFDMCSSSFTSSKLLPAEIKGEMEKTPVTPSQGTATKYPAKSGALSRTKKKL
Ribosomal protein S6 kinase alpha-3 (Homo sapiens), sequence (P51812 whole entry): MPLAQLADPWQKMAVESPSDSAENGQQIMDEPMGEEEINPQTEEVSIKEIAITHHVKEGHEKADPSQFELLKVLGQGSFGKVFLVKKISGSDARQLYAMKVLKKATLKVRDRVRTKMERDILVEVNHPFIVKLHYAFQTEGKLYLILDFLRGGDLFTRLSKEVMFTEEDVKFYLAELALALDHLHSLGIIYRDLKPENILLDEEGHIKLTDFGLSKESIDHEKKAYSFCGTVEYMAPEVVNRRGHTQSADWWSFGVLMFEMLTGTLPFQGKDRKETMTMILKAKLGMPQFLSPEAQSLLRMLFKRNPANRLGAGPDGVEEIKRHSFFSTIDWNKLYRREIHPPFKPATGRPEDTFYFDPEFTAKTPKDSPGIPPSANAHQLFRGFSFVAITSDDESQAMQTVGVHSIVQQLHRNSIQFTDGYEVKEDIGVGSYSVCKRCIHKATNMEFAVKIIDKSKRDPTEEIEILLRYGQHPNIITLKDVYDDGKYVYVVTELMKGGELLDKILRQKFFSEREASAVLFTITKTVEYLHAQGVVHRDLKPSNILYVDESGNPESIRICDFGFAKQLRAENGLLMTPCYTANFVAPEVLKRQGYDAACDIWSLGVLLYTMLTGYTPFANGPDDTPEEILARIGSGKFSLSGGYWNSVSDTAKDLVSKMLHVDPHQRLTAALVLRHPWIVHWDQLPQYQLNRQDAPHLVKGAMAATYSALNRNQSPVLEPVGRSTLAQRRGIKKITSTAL
Cyclin-dependent kinase 18 (Homo sapiens), sequence (Q07002 whole entry): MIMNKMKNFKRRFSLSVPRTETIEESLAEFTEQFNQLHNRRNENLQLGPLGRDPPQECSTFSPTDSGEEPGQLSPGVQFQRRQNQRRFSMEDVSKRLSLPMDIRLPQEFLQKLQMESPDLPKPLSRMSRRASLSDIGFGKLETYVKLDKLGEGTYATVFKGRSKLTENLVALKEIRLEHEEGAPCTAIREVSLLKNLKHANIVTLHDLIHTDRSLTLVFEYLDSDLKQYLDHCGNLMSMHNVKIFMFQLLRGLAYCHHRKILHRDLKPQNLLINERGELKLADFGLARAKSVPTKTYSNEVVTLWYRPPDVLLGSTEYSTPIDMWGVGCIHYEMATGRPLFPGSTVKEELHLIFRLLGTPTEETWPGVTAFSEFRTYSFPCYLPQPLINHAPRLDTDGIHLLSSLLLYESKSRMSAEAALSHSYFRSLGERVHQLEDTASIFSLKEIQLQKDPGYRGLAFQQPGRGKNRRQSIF
Serine/threonine-protein kinase 32B (Homo sapiens), sequence (Q9NY57 whole entry): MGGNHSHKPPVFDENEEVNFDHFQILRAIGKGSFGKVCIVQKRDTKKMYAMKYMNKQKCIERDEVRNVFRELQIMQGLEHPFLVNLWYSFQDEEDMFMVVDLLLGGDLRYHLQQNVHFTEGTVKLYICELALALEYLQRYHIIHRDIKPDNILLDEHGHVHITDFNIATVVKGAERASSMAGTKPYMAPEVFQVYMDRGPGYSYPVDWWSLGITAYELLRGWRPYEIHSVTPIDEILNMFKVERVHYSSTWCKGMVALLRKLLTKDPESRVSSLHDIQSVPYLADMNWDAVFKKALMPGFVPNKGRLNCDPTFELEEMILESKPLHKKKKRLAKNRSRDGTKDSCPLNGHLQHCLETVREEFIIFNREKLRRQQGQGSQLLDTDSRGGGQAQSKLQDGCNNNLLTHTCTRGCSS
Vascular endothelial growth factor receptor 1 (Homo sapiens), sequence (P17948 whole entry): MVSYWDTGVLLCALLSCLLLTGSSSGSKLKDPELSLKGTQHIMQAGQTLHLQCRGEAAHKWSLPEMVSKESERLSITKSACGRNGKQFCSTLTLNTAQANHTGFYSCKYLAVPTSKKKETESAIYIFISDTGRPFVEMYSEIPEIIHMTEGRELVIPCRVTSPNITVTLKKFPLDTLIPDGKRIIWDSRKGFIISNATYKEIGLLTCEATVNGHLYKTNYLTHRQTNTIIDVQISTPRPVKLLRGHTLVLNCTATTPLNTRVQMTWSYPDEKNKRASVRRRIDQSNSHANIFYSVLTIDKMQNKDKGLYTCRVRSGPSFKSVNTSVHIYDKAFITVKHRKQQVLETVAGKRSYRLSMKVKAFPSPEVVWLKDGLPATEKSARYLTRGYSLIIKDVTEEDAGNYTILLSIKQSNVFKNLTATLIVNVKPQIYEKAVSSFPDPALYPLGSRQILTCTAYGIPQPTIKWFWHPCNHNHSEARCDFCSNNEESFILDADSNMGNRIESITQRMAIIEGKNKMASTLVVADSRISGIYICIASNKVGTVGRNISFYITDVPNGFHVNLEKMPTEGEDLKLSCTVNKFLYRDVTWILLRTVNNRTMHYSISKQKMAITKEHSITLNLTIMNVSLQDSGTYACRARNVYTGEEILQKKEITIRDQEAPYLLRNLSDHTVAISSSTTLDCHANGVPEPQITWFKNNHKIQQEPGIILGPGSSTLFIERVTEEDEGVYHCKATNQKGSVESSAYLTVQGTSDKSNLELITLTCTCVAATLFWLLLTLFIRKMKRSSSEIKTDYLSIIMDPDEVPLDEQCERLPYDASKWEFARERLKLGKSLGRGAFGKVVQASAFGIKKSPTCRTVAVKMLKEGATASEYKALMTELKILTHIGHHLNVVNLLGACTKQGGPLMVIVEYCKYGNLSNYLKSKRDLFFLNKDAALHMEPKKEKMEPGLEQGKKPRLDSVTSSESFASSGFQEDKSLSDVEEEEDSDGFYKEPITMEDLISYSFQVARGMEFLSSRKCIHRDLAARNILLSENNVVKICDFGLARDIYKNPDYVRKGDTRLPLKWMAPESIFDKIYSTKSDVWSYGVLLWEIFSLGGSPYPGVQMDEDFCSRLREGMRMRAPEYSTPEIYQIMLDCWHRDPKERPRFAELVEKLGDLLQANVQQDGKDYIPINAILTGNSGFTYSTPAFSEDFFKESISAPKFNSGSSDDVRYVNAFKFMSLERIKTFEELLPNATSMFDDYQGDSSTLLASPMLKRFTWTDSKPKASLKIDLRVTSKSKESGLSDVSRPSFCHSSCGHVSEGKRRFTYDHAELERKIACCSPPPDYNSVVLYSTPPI

For `CC(C)[C@H](NC(=O)c1cc(-c2cnn3cc(-c4ccc(OCCN5CCCCC5)cc4)cnc23)cs1)C(F)(F)F`, in [1], the fold change (FC) worked out at 0.18.
Broadly, the inhibition is the drop in the measured response relative to a control, in per cent. As for `O=C(N[C@@H](C1CC1)C(F)(F)F)c1cc(-c2cnn3cc(-c4ccc(F)cc4)cnc23)cs1`, the inhibition in [2] is 3%; in [3], 31%; in assay [4], 0%; in [6], 0%. In addition, the fold change (FC) in assay [5] is 0.1.
Take `CNC(=O)c1ccccc1Oc1nc(Nc2cc(OC)c(OC)c(OC)c2)ncc1Br`: the inhibition amounted to 0% in assay [7] and 21% in assay [9]. The fold change (FC) in assay [8] was 0.03; in [10], 0.

(Values after ChEMBL document CHEMBL5653631, “A Potent and Selective ULK1 Inhibitor Suppresses Autophagy and Sensitizes Cancer Cells to Nutrient Stress” (iScience, 2018).)
